{"source": "paper PMC4500896", "about": "“Frog intestinal perfusion to evaluate drug permeability: application to p-gp and cyp3a4 substrates” (Frontiers in Pharmacology, 2015)", "key": {"frog intestine [1]": {"test_system": "frog intestine", "conditions": "in vivo"}, "[2]": {"test_system": "human intestinal permeability", "set-up": "method as in a (footnote not given)", "conditions": "reported human Peff; ref a (footnote not given); cited from earlier work"}, "Caco-2": {"test_system": "Caco-2", "set-up": "method as in b (footnote not given)", "conditions": "Caco-2 cell data; ref b (footnote not given); cited from earlier work"}, "[3]": {"assay": "Frog in situ single pass intestinal perfusion (SPIP), parallel-tube model", "conditions": "Rana tigrina (frog), pH 7.4"}, "rat everted gut sac": {"test_system": "rat everted gut sac", "conditions": "rat everted gut sac model; ref c (footnote not given); cited from earlier work"}, "frog intestine [4]": {"test_system": "frog intestine", "assay": "Frog in situ single pass intestinal perfusion (SPIP), parallel-tube model", "conditions": "non-absorbable marker in outlet perfusate, frog SPIP"}}}
{"smiles": "CCCCc1nc(Cl)c(CO)n1Cc1ccc(-c2ccccc2-c2nn[nH]n2)cc1", "note": "[Losartan]", "values": [{"measurement": "Change in Peff of the probe drug when co-perfused with inhibitors", "setting": "frog intestine [1]", "value": "significant change in Peff was observed"}, {"measurement": "Effective permeability coefficient, Human", "setting": "[2]", "value": "1.15^a 10^-4cm s^-1"}, {"measurement": "Effective permeability coefficient, Caco-2", "setting": "Caco-2", "value": "0.022^b 10^-4cm s^-1"}, {"measurement": "Papp at 90 min", "setting": "[3]; other: in situ single pass intestinal perfusion", "value": "42.7 ± 27", "unit": "×10⁻⁶ cm/s"}]}
{"smiles": "Cc1ncc2n1-c1ccc(Cl)cc1C(c1ccccc1F)=NC2", "note": "[Midazolam]", "values": [{"measurement": "Effective permeability coefficient, Rat", "setting": "rat everted gut sac", "value": "2.08 ± 0.50^c 10^-4cm s^-1"}, {"measurement": "Papp at 90 min", "setting": "[3]", "value": "203 ± 7", "unit": "×10⁻⁶ cm/s"}]}
{"smiles": "O=S1(=O)OC(c2ccc(O)cc2)(c2ccc(O)cc2)c2ccccc21", "note": "[phenol red]", "values": [{"measurement": "Recovery of phenol red", "setting": "frog intestine [4]", "value": "98.3 ± 1.0", "unit": "%"}]}
